Publication PMC8222254, “Self-assembly of an anion receptor with metal-dependent kinase inhibition and potent in vitro anti-cancer properties” (Nature Communications, 2021)
Where “and” joins values, the source holds several entries; their conditions need not be identical. Equal values may be shown once.

Legend:
Assay in all cases: Kinase inhibition screen, cell-free 33P ATP assay at 10 μM
Format in all cases: biochemical
[1] = molecular target: 140 purified human kinases (Homo sapiens, UniProt O75582)
Chain of 140 purified human kinases (Homo sapiens, UniProt O75582) (O75582 whole entry): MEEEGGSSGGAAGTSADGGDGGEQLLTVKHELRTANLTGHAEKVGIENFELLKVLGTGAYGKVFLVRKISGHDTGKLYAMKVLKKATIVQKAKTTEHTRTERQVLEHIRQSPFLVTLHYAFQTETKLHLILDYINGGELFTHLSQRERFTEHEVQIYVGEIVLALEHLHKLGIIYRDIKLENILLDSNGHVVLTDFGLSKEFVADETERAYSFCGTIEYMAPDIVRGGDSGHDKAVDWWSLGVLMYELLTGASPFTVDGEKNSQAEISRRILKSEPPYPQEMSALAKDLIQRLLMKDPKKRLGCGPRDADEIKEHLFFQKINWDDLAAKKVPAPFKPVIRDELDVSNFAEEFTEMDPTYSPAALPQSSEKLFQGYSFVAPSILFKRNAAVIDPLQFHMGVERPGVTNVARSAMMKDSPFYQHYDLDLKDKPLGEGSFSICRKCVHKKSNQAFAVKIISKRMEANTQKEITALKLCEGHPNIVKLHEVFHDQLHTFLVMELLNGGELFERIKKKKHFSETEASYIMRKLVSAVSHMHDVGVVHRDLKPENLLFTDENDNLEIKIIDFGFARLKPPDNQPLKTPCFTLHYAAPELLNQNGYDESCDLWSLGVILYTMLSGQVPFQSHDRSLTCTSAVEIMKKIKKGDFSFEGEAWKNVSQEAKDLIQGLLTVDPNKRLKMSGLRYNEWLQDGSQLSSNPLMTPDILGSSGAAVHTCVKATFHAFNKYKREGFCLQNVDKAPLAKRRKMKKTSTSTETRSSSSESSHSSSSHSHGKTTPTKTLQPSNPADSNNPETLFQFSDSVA
How it was run: (§1)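 Each complex tested in duplicate at 10 μM; cell-free radiometric assay using ^33P ATP on purified enzymes. Hits mapped by HGNC symbol onto the kinome tree.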

[2] = molecular target: T1, 140 purified human kinases (Homo sapiens, UniProt P54753)
T1 sequence (P54753 34-998): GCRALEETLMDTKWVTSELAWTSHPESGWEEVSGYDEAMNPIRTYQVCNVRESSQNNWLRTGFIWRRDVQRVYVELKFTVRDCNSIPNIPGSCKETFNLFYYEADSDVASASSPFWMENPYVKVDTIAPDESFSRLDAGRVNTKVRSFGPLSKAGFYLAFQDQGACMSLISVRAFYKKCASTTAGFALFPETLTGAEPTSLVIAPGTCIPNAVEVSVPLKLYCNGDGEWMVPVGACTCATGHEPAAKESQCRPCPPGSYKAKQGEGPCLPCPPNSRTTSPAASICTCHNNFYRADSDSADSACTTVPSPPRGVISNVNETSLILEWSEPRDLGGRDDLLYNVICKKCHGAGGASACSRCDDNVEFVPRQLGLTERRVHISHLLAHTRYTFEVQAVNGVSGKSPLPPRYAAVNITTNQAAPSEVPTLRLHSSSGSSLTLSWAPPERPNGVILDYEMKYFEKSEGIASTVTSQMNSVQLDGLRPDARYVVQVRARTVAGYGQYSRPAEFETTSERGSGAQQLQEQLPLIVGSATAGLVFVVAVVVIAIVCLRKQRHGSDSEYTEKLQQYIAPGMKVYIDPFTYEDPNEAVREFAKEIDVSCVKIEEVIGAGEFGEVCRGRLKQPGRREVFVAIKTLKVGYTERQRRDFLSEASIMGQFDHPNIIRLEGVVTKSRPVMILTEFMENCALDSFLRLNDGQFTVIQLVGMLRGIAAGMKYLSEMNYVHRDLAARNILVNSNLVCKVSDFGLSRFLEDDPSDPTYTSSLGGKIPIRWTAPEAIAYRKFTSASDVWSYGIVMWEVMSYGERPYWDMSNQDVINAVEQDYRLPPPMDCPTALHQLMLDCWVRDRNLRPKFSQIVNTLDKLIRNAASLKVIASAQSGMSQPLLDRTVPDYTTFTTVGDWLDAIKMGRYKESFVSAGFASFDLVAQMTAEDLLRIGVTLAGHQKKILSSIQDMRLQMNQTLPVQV
How it was run: as §1

[3] = molecular target: T2, 140 purified human kinases (Homo sapiens, UniProt P36897)
T2 sequence (P36897 34-503): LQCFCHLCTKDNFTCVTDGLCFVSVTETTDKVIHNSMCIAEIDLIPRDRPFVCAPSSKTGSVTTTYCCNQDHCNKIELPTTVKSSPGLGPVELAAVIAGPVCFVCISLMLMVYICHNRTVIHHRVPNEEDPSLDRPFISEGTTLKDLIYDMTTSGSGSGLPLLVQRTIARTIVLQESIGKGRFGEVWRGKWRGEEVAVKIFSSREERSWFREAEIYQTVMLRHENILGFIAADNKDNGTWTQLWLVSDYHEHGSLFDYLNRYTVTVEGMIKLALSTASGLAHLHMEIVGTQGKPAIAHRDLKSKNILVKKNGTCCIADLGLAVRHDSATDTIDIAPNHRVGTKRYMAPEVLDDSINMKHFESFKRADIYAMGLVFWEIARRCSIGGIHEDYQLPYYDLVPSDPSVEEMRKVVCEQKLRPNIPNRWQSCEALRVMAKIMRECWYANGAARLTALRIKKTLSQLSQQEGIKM
How it was run: as §1

[4] = molecular target: 140 purified human kinases (Homo sapiens, UniProt Q9HC98)
Chain of 140 purified human kinases (Homo sapiens, UniProt Q9HC98) (Q9HC98 whole entry): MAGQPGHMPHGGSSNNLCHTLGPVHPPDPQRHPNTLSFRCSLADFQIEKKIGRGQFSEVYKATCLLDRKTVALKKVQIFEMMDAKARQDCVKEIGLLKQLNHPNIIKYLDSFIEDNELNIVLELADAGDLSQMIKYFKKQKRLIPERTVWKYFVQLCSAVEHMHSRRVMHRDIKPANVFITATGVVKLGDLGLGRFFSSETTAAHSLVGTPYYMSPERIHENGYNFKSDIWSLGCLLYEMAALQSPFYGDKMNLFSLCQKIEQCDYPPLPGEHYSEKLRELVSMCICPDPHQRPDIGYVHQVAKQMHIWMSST
How it was run: as §1

[5] = molecular target: T3, 140 purified human kinases (Homo sapiens, UniProt Q9BXA7)
T3 sequence (Q9BXA7 1-367): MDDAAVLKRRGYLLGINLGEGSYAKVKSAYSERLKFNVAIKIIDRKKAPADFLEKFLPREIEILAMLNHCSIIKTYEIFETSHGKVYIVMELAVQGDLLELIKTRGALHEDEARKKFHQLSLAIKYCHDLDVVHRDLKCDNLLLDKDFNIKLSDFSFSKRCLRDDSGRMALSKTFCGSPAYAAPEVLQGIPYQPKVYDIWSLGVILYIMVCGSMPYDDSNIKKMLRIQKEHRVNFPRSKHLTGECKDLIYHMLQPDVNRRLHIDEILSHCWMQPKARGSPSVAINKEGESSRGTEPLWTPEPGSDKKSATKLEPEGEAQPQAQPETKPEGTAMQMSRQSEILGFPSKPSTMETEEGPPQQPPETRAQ
How it was run: as §1

[6] = molecular target: 140 purified human kinases (Homo sapiens, UniProt P31751); conditions: PKBb
Chain of 140 purified human kinases (Homo sapiens, UniProt P31751) (P31751 whole entry): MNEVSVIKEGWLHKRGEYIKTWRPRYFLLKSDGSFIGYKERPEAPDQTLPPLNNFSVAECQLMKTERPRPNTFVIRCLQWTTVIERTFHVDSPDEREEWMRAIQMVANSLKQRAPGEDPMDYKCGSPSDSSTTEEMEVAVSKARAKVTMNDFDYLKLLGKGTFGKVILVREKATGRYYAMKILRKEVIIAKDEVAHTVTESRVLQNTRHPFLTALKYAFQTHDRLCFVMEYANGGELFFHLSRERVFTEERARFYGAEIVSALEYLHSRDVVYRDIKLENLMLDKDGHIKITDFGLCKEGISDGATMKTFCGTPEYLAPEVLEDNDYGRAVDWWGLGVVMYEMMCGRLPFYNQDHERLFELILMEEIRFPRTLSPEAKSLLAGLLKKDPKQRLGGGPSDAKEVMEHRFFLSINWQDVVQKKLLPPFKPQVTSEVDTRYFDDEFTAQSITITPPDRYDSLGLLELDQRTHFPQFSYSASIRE
How it was run: as §1

Question: How did the “% Inhibition Run 1” value ([1]; MSK1) turn out when `[Cu+2].[Cu+2].[Cu+2].c1ccc(-c2csc(NCCN(CCNc3nc(-c4ccccn4)cs3)CCNc3nc(-c4ccccn4)cs3)n2)nc1.c1ccc(-c2csc(NCCN(CCNc3nc(-c4ccccn4)cs3)CCNc3nc(-c4ccccn4)cs3)n2)nc1` [[L2Cu3]6+] was run?
Answer: Its value is 67.5%.

Question: What about the “% Inhibition Run 2” value ([1]; MSK1) of the same compound?
Answer: The value was 74.8%.

Question: And the “% Inhibition, Mean” value ([1]; MSK1)?
Answer: The value was 71%.

Question: And the mean % activity ([1]; MSK1)?
Answer: The mean % activity was 29%.

Question: And the “% activity” value ([1]; MSK1, Run 1)?
Answer: Its value is 32.5%.

Question: And the “% activity” value ([1]; MSK1, Run 2)?
Answer: Its value is 25.2%.

Question: What about the “% Inhibition Run 1” value ([2]; EPH-B3) of the same compound?
Answer: Its value is 12.5%.

Question: And the “% Inhibition Run 2” value ([2]; EPH-B3)?
Answer: Its value is 19.2%.

Question: And the “% Inhibition, Mean” value ([2]; EPH-B3)?
Answer: Its value is 16%.

Question: What about the mean % activity ([2]; EPH-B3) of the same compound?
Answer: Its mean % activity is 84%.

Question: What about the “% activity” value ([2]; EPH-B3, Run 1) of the same compound?
Answer: Its value is 87.5%.

Question: And the “% activity” value ([2]; EPH-B3, Run 2)?
Answer: The value was 80.8%.

Question: What about the “% Activation, Mean value” ([3]; TGFBR1) of the same compound?
Answer: Its value is 30%.

Question: And the “% Inhibition Run 1” value ([3]; TGFBR1)?
Answer: Its value is -44.2%.

Question: And the “% Inhibition Run 2” value ([3]; TGFBR1)?
Answer: The value was -16.7%.

Question: And the “% Inhibition, Mean” value ([3]; TGFBR1)?
Answer: The value was -30%.

Question: And the mean % activity ([3]; TGFBR1)?
Answer: The mean % activity was 130%.

Question: What about the “% activity” value ([3]; TGFBR1, Run 1) of the same compound?
Answer: The value was 144.2%.

Question: And the “% activity” value ([3]; TGFBR1, Run 2)?
Answer: Its value is 116.7%.

Question: And the “% Activity Run 1” value ([3]; TGFBR1, 10 µM)?
Answer: The value was 144.20%.

Question: And the “% Activity Run 2” value ([3]; TGFBR1, 10 µM)?
Answer: The value was 116.70%.

Question: And the “% Inhibition Run 1” value ([4]; NEK6)?
Answer: Its value is 34.4%.

Question: And the “% Inhibition Run 2” value ([4]; NEK6)?
Answer: Its value is 27.1%.

Question: And the “% Inhibition, Mean” value ([4]; NEK6)?
Answer: The value was 31%.

Question: What about the mean % activity ([4]; NEK6) of the same compound?
Answer: Its mean % activity is 69%.

Question: And the “% activity” value ([4]; NEK6, Run 1)?
Answer: The value was 65.6%.

Question: What about the “% activity” value ([4]; NEK6, Run 2) of the same compound?
Answer: The value was 72.9%.

Question: What about the “% Inhibition Run 1” value ([5]; TSSK1) of the same compound?
Answer: The value was 44%.

Question: What about the “% Inhibition Run 2” value ([5]; TSSK1) of the same compound?
Answer: The value was 46.8%.

Question: And the “% Inhibition, Mean” value ([5]; TSSK1)?
Answer: The value was 45%.

Question: And the mean % activity ([5]; TSSK1)?
Answer: Its mean % activity is 55%.

Question: What about the “% activity” value ([5]; TSSK1, Run 1) of the same compound?
Answer: The value was 56%.

Question: And the “% activity” value ([5]; TSSK1, Run 2)?
Answer: The value was 53.2%.

Question: And the “% Inhibition Run 1” value [6]?
Answer: Its value is 91.7%.

Question: What about the “% Inhibition Run 2” value [6] of the same compound?
Answer: Its value is 93.5%.

Question: And the “% Inhibition, Mean” value [6]?
Answer: Its value is 93%.

Question: What about the mean % activity [6] of the same compound?
Answer: Its mean % activity is 7.4%.

Question: And the “% activity” value ([6]; Run 1)?
Answer: The value was 8.3%.

Question: And the “% activity” value ([6]; Run 2)?
Answer: The value was 6.5%.

Question: What about the “% Activity inhibition Mean” value ([6]; 10 µM) of the same compound?
Answer: Its value is 92.6%.

Question: What about the “% Activity inhibition Run 1” value ([6]; 10 µM) of the same compound?
Answer: The value was 91.7%.

Question: And the “% Activity inhibition Run 2” value ([6]; 10 µM)?
Answer: The value was 93.5%.

Question: What about the “% Activity remaining Run 1” value ([6]; 10 µM) of the same compound?
Answer: Its value is 8.30%.

Question: And the “% Activity remaining Run 2” value ([6]; 10 µM)?
Answer: The value was 6.50%.

Question: What does the source list for `CC(=O)[O-].CC(=O)[O-].CC(=O)[O-].CC(=O)[O-].CC(=O)[O-].CC(=O)[O-].[Zn+2].[Zn+2].[Zn+2].c1ccc(-c2csc(NCCN(CCNc3nc(-c4ccccn4)cs3)CCNc3nc(-c4ccccn4)cs3)n2)nc1.c1ccc(-c2csc(NCCN(CCNc3nc(-c4ccccn4)cs3)CCNc3nc(-c4ccccn4)cs3)n2)nc1` [[L2Zn3]6+]?
Answer: % Inhibition, Mean ([1]; MSK1): 22%; % Inhibition, Run 1 / Run 2 ([1]; MSK1): 27% and 18%; mean % activity ([1]; MSK1): 78%; % activity ([1]; MSK1, duplicate runs): 73% and 82%; % Inhibition, Mean ([2]; EPH-B3): 51%; % Inhibition, Run 1 / Run 2 ([2]; EPH-B3): 59% and 44%; mean % activity ([2]; EPH-B3): 49%; % activity ([2]; EPH-B3, duplicate runs): 41% and 56%; % Inhibition, Mean ([3]; TGFBR1): 41%; % Inhibition, Run 1 / Run 2 ([3]; TGFBR1): 35% and 48%; mean % activity ([3]; TGFBR1): 59%; % activity ([3]; TGFBR1, duplicate runs): 65% and 53%; % Inhibition, Mean ([4]; NEK6): 22%; % Inhibition, Run 1 / Run 2 ([4]; NEK6): 25% and 20%; mean % activity ([4]; NEK6): 78%; % activity ([4]; NEK6, duplicate runs): 75% and 81%; % Inhibition, Mean ([5]; TSSK1): 27%; % Inhibition, Run 1 / Run 2 ([5]; TSSK1): 29% and 24%; mean % activity ([5]; TSSK1): 73%; % activity ([5]; TSSK1, duplicate runs): 71% and 76%; % Inhibition, Mean [6]: 65%; % Inhibition, Run 1 / Run 2 [6]: 76% and 55%; mean % activity [6]: 35%; % activity ([6]; duplicate runs): 24% and 45%
